Data taken from PubChem BioAssay (NCI).
Converted amounts (≈) assume the structure as drawn.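 Test compounds were applied to cells in 96-well plates for 48 hours at 5 doses. The concentration for 50% growth inhibition is given as GI50. Definition used: TGI = concentration required for complete inhibition of growth.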

Experiments:
Test in all cases: inhibition of tumour cell growth, NCI panel, 48 h
[1] = test system: MALME-3M melanoma
[2] = test system: EKVX NSCLC
[3] = test system: COLO 205 colon
[4] = test system: SNB-19 CNS
[5] = test system: SF-295 CNS
[6] = test system: UACC-62 melanoma
[7] = test system: A549 NSCLC
[8] = test system: SK-MEL-5 melanoma
[9] = test system: IGROV1 ovarian
[10] = test system: OVCAR-8 ovarian

With `COC(=O)C(Cc1cn(C(C)n2cc(CC(NC(C)=O)C(=O)OC)c3ccccc32)c2ccccc12)NC(C)=O` (stereo not given) the TGI [1] was > 100 µM, the TGI [2] was > 100 µM and the TGI [3] was > 100 µM. For the same molecule, the TGI [4] was > 100 µM, the TGI [5] was > 100 µM and the TGI [6] was > 100 µM. For the same molecule, the TGI [7] was > 100 µM, the TGI [8] was > 100 µM and the TGI [9] was > 100 µM.
With `O=c1oc2ccccc2c(O)c1Cc1ccc(Cc2c(O)c3ccccc3oc2=O)cc1` the TGI [1] was > 100 µM, the TGI [2] was > 100 µM and the TGI [3] was > 100 µM. The TGI [5] was > 100 µM, the TGI [6] was > 100 µM and the TGI [10] was > 100 µM. For the same molecule, the TGI [7] was > 100 µM, the TGI [8] was > 100 µM and the TGI [9] was > 100 µM.
For `O=C(O)c1nc2ccc(C(F)(F)F)cc2[nH]c1=O`, the TGI [1] was > 100 µM, the TGI [2] was > 100 µM and the TGI [3] was > 100 µM. For the same molecule, the TGI [4] was > 100 µM, the TGI [5] was > 100 µM and the TGI [6] was > 100 µM. For the same molecule, the TGI [10] was > 100 µM, the TGI [7] was > 100 µM and the TGI [8] was > 100 µM. For the same molecule, the TGI [9] was > 100 µM.
In the case of `COC(=O)CC(=O)OSc1ccccc1`, the TGI [1] is reported as > 100 µM, the TGI [2] is reported as 89.2 µM and the TGI [3] is reported as 38.2 µM. For the same molecule, the TGI [4] was > 100 µM, the TGI [5] was 96.3 µM and the TGI [6] was 29.5 µM. It also gave a TGI [7] of 77.3 µM, a TGI [8] of 87.9 µM and a TGI [9] of 20.2 µM.
`CCOC(=O)c1csc(NC(=O)C(C)N2CCCC2)n1` (stereo not given) was tested, and the TGI [3] was > 100 µM, the TGI [4] was > 100 µM and the TGI [5] was > 100 µM. The TGI [6] was > 100 µM, the TGI [10] was > 100 µM and the TGI [7] was > 100 µM. For the same molecule, the TGI [8] was > 100 µM and the TGI [9] was > 100 µM.
With `CSCC[C@@H](NC(=O)[C@H](CC(C)C)NC(=O)C(Cc1cnc[nH]1)NC(=O)CNC(=O)[C@@H](NC(=O)[C@H](C)NC(=O)[C@H](Cc1c[nH]c2ccccc12)NC(=O)[C@H](CCC(N)=O)NC(=O)[C@@H](N)CC(N)=O)C(C)C)C(N)=O` (stereo not given in full) the TGI [1] was > 100 µM, the TGI [2] was > 100 µM and the TGI [3] was > 100 µM. The TGI [4] was > 100 µM, the TGI [5] was > 100 µM and the TGI [6] was > 100 µM. The TGI [10] was > 100 µM, the TGI [7] was > 100 µM and the TGI [8] was > 100 µM. For the same molecule, the TGI [9] was > 100 µM.
With `CN(C)CCNC(=O)c1cccc2c1Nc1ccccc1S2` the TGI [1] was 29.2 µM, the TGI [2] was 18.7 µM and the TGI [3] was 25.8 µM. The TGI [4] was 24 µM, the TGI [5] was 27.7 µM and the TGI [6] was 28.4 µM. The TGI [10] was 30.2 µM, the TGI [7] was 28.8 µM and the TGI [8] was 26.3 µM. For the same molecule, the TGI [9] was 24.1 µM.
`O=C1NN(C2=NNC3(C(=O)N2)c2ccccc2-c2ccccc23)C(c2ccccc2)=N/C1=C/c1ccc(Cl)cc1` was tested, and the GI50 [1] was 89.9 µg/mL (≈ 165 µM), the TGI [1] was > 150 µg/mL and the GI50 [2] was 38.7 µg/mL (≈ 71 µM). For the same molecule, the TGI [2] was 108 µg/mL, the GI50 [3] was 69.2 µg/mL (≈ 127 µM) and the TGI [3] was > 150 µg/mL. It also gave a GI50 [4] of 28.3 µg/mL (≈ 52 µM), a TGI [4] of 59.9 µg/mL and a GI50 [5] of 30.7 µg/mL (≈ 56.3 µM). The TGI [5] was 73.9 µg/mL, the GI50 [6] was 29.8 µg/mL (≈ 54.7 µM) and the TGI [6] was 65.6 µg/mL. For the same molecule, the GI50 [10] was 78.1 µg/mL (≈ 143 µM), the TGI [10] was > 150 µg/mL and the GI50 [7] was 60.2 µg/mL (≈ 111 µM). The TGI [7] was > 150 µg/mL, the GI50 [8] was 46.4 µg/mL (≈ 85.1 µM) and the TGI [8] was > 150 µg/mL. The GI50 [9] was 60.5 µg/mL (≈ 111 µM) and the TGI [9] was > 150 µg/mL.
